# Measurements as given in publication PMC4265264 (Hepatology (Baltimore, Md.), 2014).
# Experiments:
# [1] = test system: calcineurin/NF-AT pathway; experiment: Calcineurin/NF-AT reporter assay in Jurkat cells; assay type: cell-based, human; settings: pNF-AT-luc, PMA and ionomycin
# [2] = test system: HCV; settings: read-out: anti-HCV replication activity (IC50); cited from earlier work
# [3] = test system: HCVpp; experiment: HCV pseudoparticle; assay type: cell-based, hepatitis C virus; settings: Huh-7.5.1 cells pretreated 1 h, HCVpp 4 h, read at 72 h
# [4] = test system: HBV; experiment: HBV infection of primary human hepatocytes; assay type: cell-based, hepatitis B virus; settings: CsA 4 μM, HBs in medium or HBV DNA in cells at 12 days
# [5] = test system: HBV; experiment: HBV infection; assay type: cell-based, hepatitis B virus; settings: HepaRG
# [6] = test system: HBV; experiment: HBV attachment and internalization assay in HepaRG cells; assay type: cell-based, hepatitis B virus; settings: CsA 4 μM
# [7] = test system: HBV; experiment: HBV infection of HepG2 cells overexpressing NTCP; assay type: cell-based, hepatitis B virus; settings: pretreated 2 h, HBV 16 h
# [8] = test system: HBV particles; experiment: Pretreatment of HBV particles with compounds, then infection of HepaRG cells; assay type: cell-based, hepatitis B virus; settings: 30 min 37°C, compound removed by ultrafiltration, HBs at 12 days
# [9] = test system: HBV; experiment: HBV replication in HepAD38 cells, southern blot of core particle HBV DNA; assay type: cell-based, hepatitis B virus; settings: lamivudine 1 μM, 6 days
molecule,measurement,setting,value
C=CC[C@@H]1/C=C(\C)C[C@H](C)C[C@H](OC)[C@H]2O[C@@](O)(C(=O)C(=O)N3CCCC[C@H]3C(=O)O[C@H](/C(C)=C/[C@@H]3CC[C@@H](O)[C@H](OC)C3)[C@H](C)[C@@H](O)CC1=O)[C@H](C)C[C@@H]2OC [FK506],Calcineurin (CN)/NF-AT pathway inhibition,[1],can inhibit CN
Alisporivir,IC50,[2],220 nM
PSC833,Calcineurin (CN)/NF-AT pathway inhibition,[1],inactive for CN inhibition
cyclosporin A [CsA],HCV entry (HCVpp luciferase activity),[3],did not affect the entry of HCV
same,Calcineurin (CN)/NF-AT pathway inhibition,[1],can inhibit CN
same,Infection of different HBV genotypes into PHHs,[4],"reduced the infection of HBV genotype A, C, or D"
same,"HBc protein, HBV DNA and cccDNA in the cells and HBe in the medium","[5]; CsA 4 μM, 12 days postinfection",significantly decreased
same,"HBs and HBe production, compound added during HBV infection (time of addition)","[5]; CsA 4 μM, Fig. 2E-b",decreased HBs and HBe production
same,"HBs and HBe production, compound added after HBV infection (time of addition)","[5]; CsA 4 μM, Fig. 2E-c",did not have an anti‐HBV effect
same,Dose-response of HBs (and HBe) secretion,"[5]; protocol Fig. 1A, CsA 0.5-4 μM, analogs 0.25-4 μM",decreased HBs and HBe secreted from the infected cells
same,Attached HBV DNA (attachment assay),"[6]; 4°C 3 h, real-time PCR","slightly reduced the amount of attached HBV DNA, although the effect was not statistically significant"
same,Internalized HBV DNA (internalization assay),"[6]; 37°C 16 h after attachment, trypsinized",significant reduction of HBV DNA
same,HBs and HBe secretion of HBV-infected HepG2-NTCP cells,[7],reduced HBs and HBe secretion
same,HBV infectivity after preincubation of HBV with compound,[8],did not affect HBV infectivity
CO/C1=C\C(C)=C\[C@@H](C)[C@@H](O)[C@@H](C)C/C(C)=C/C=C/[C@H](OC)[C@@H]([C@@H](C)[C@@H](O)[C@H](C)[C@@]2(O)C[C@@H](O)[C@H](C)[C@@H](C(C)C)O2)OC1=O [bafilomycin A1],HCV entry (HCVpp luciferase activity),[3],inhibition of HCV entry
Nc1ccn([C@@H]2CS[C@H](CO)O2)c(=O)n1 [lamivudine],HBV DNA in HepAD38 cells,[9],drastically decreased HBV DNAs
heparin,HCV entry (HCVpp luciferase activity),[3],inhibition of HCV entry
same,HBV infectivity after preincubation of HBV with compound,[8],antagonizing effect
